# Test results from patent publication US7416741B2, “Copper lowering treatment of inflammatory and fibrotic diseases” (The Regents of the University of Michigan, priority 2002, dated 2008).
# Legend:
# [1] = tested on: α-smooth muscle actin; assay: α-Smooth muscle actin assay (ELISA) in lung homogenates; assay type: in vivo, mouse; conditions: Ex 2 Exp 2; day 21; p=0.09
# Experimental: α-Smooth muscle actin assay. De novo appearance of myofibroblasts is a hallmark of active fibrosis, and these cells are known as the primary source of interstitial collagen in pulmonary fibrosis (See e.g., K Zhang et al., Am. J. Pathol, 145:114-125 [1994]). Since α-smooth muscle actin is a marker of myofibroblast differentiation, the level of this protein in lung tissue homogenates was measured by ELISA as before (use same reference above for TGFβ assay by ELISA).
# [2] = tested on: sheep; conditions: cited from earlier work
# [3] = tested on: Con A mouse model; assay: Liver histological examination in the Con A mouse model; assay type: in vivo; conditions: Ex 4; Con A mice
# Experimental: A study was carried out in a mouse model of concanavilin A (Con A) production of liver cirrhosis. There were four experimental groups of several mice each. […] The Con A was injected intravenously once weekly into mice (0.3 mg/mouse/week), and produced a hepatitis, which is manifested by an increasing level of alanine transaminase (ALT) enzymes in the blood. The TM was given once daily by […] in a dose of 0.7 mg/mouse/day beginning 7 days prior to ConA treatment. During days 9 to 11 after Con A, the TM-treated mice received 1.2 mg of TM daily, to ensure adequate lowering of copper levels, and then received 0.7 mg daily for the duration of the study. A blood sample was obtained 28 days after ConA treatment, and the mice were sacrificed on the same day. Serum alanine transaminase (ALT) was measured in Sigma-Frankel (SF) units, where one unit is the formation of 0.000482 umoles of glutamate/minute at pH 7.5 and 25 ° C.
structure (smiles),measurement,setting,value
"[SH-].[SH-].[S]=[Mo]=[S] [TM, tetrathiomolybdate]","lung SMA (α-smooth muscle actin) protein levels, bleomycin-induced increase",[1],inhibited most of the increase
same,tolerability of intravenous TM,"[2]; copper loaded sheep, 50 or 100 mg 2×weekly for up to 11 weeks",tolerated up to 22 injections of TM without clinical problems
same,adverse side effects,"[2]; prophylactic use in commercial sheep flocks, over 400 animals",no adverse side effects
same,histological examination: inflammation and early bridging fibrosis,[3],not in the TM treated animals
